Measurements published in patent US5198445A, “Composition and use of substituted 3-thio-2-propynenitriles as industrial antimicrobials” (The Dow Chemical Company, priority 1992, dated 1993).
Values after ≈ are worked out from the molar mass of the structure shown. Where two headings read alike, the source gives them in different places.

How the values were obtained:
Bacillus subtilis (Bs) = test: MIC in nutrient agar, Bacillus subtilis; format: cell-based, Bacillus subtilis ATCC 8473
Experimental: (§1) The minimum inhibitory concentration (MIC) for the compounds listed in Table I is determined for 9 bacteria, using nutrient agar, and 7 yeast and fungi, using malt yeast agar. A one percent solution of the test compound is prepared in a mixture of acetone and water. Nutrient agar is prepared at pH 6.8, representing a neutral medium, and at pH 8.2, representing an alkaline medium. The nutrient agars are prepared by adding 23 g of nutrient agar to one-liter of deionized water. In addition, the alkaline medium is prepared by adjusting a 0.04M solution of N-[tris-(hydroxymethyl)methyl]-glycine buffered deionized water with concentrated sodium hydroxide to a pH of […]. Malt yeast agar is prepared by adding 3 g yeast extract and 45 g malt agar per liter of deionized water. The specific agar is dispensed in 30 ml aliquots into 25×200 mm test tubes, capped and autoclaved for 15 minutes at 115° C. The test tubes containing the agar are cooled in a water bath until the temperature of the agar is 48° C. Then, an appropriate amount of the one percent solution of the test compound is added (except in the controls where no compound is added) to the respective test tubes so that the final concentrations are 500, 250, 100, 50, 25, 10, 5, 2.5, 1.0 and zero parts per million of the test compound in the agar, thus having a known concentration of test compound dispersed therein. The contents of the test tubes are then transferred to respective petri plates. After drying for 24 hours, the petri plates containing nutrient agar are inoculated with bacteria and those containing malt yeast agar are inoculated with yeast and fungi.
(§2) The inoculation with bacteria is accomplished by using the following procedure. Twenty-four hour-cultures of each of the bacteria are prepared by incubating the respective bacteria in tubes containing nutrient broth for 24 hours at 30° C. in a shaker. Dilutions of each of the 24 hour-cultures are made so that nine separate suspensions (one for each of the nine test bacteria) are made, each containing 10^8 colony forming units (CFU) per ml of suspension of a particular bacteria. Aliquots of 0.3 ml of each of the bacterial suspensions are used to fill the individual wells of Steer's Replicator. For each microbial suspension, 0.3 ml was used to fill three wells (i.e., three wells of 0.3 ml each) so that for the nine different bacteria, 27 wells are filled. The Steer's Replicator is then used to inoculate both the neutral and alkaline pH nutrient agar petri plates.
(§3) The inoculated petri plates are incubated at 30° C. for 48 hours and then read to determine if the test compound which is incorporated into the agar prevented growth of the respective bacteria.
(§4) Table II lists the bacteria, yeast and fungi used in the MIC test described above along with their respective American Type Culture Collection (ATCC) identification numbers.
(§5) The following MIC and MEC antimicrobial tests, whose results are shown in Tables XIII-XVII, are performed using the same methods as described hereinabove.

[1] = Stability of 3-thio-2-propynenitriles at pH 7 or above / in basic solution; format: physicochemical; settings: basic solution / pH of 7 or above
Source text: It has also been discovered that the compounds of the present invention may degrade at a pH of 7 or above over an extended time period to compounds which are less antimicrobially active than the original compounds of the present invention.

[2] = system: mixture of the bacterial organisms listed in Table II; test: MEC in paint formulation after 1 month storage; format: cell-based, bacteria listed in Table II; settings: 730 h, pH between 7 and 9, after 1 month storage at room temperature
Experimental: (§6) The formulations are separated into 50 g aliquots and placed in sterile bottles. An appropriate amount of a fresh one percent stock solution of the test compound in acetone-water is added to achieve the desired final concentrations. A small portion of each of the test formulations is streaked onto Tryptic Soy Agar (TSA) petri plates using sterile cotton swabs to ensure that the formulations are sterile. If the formulation is sterile, then it is inoculated with 0.1 ml of a mixture of equal aliquots of the 24 hour cultures of each of the bacterial organisms listed in Table II. The test formulations are then incubated at 30° C. After 24 hours, each sample is streaked onto a TSA petri plate using a sterile swab. All plates are then incubated at 30° C. for 48 hours and then rated for microbial growth using the rating system listed in Table VIII. Samples with a rating of 3 or less are reinoculated as described in the procedure for the first inoculation. Samples with a rating of 4 or greater are not reinoculated but after another 24 hours are restreaked on TSA agar.
(§7) The normal interpretation of the results is that a concentration of the antimicrobial being tested is considered to be effective if no ratings greater than a 3 are observed throughout the 10 challenges. […]

[3] = system: mixture of the bacterial organisms listed in Table II; test: MEC in tape joint formulation after 3 months storage; format: cell-based, bacteria listed in Table II; settings: 2190 h, pH between 5 and 7, after 3 months storage at room temperature
Experimental: as §6, §7

[4] = system: Pseudomonas aeruginosa (Pa); test: MIC in nutrient agar, Pseudomonas aeruginosa; format: cell-based, Pseudomonas aeruginosa ATCC 10145
Experimental: as §1, §2, §3, §4, §5

[5] = Bacillus subtilis, pH 6.8; read-out: Minimum Inhibitory Concentration, Bs
[6] = Bacillus subtilis, pH 8.2, read-out: Minimum Inhibitory Concentration, Bs
[7] = Bacillus subtilis, pH 6.8, read-out: Minimum Inhibitory Concentration, Bs
[8] = Bacillus subtilis, pH 8.2; read-out: Minimum Inhibitory Concentration, Bs
[9] = pH 8.2, read-out: Minimum Inhibitory Concentration, Pa

Compound | MIC (Bacillus subtilis (Bs); [5]) [µg/mL] | MIC (Bacillus subtilis (Bs); [6]) [µg/mL] | MIC (Bacillus subtilis (Bs); [7]) [µg/mL] | MIC (Bacillus subtilis (Bs); [8]) [µg/mL] | stability [1] | Minimum Inhibitory Concentration, Bs (Bacillus subtilis (Bs); pH 8.2) [ppm] | minimal effective concentration [2] [µg/mL] | minimal effective concentration [3] [µg/mL] | MIC [4, 9] [µg/mL] | MIC ([4]; pH 6.8, read-out: Minimum Inhibitory Concentration, Pa) [µg/mL]
CCSC#CC#N [B, 3-ethylthio-2-propynenitrile] | 25 (≈ 225 µM) | 25 (≈ 225 µM) | – | – | – | – | – | – | – | –
N#CC#CSC1CCCC1 [C, 3-cyclopentylthio-2-propynenitrile] | – | – | 100 (≈ 661 µM) | 250 (≈ 1650 µM) | – | – | – | – | – | –
CSC#CC#N [Compound A, 3-methylthio-2-propynenitrile] | 2.5 (≈ 25.7 µM) | – | – | 5 (≈ 51.5 µM) | observed to decompose in a basic solution to several compounds | 5 | > 50 | > 50 | 2.5 (≈ 25.7 µM) | –
CSC=C(Cl)C#N [Compound G, 2-chloro-3-(methylthio)-2-propenenitrile] | – | 10 (≈ 74.8 µM) | 75 (≈ 561 µM) | – | – | – | – | > 50 | 5 (≈ 37.4 µM) | 50 (≈ 374 µM)
N#CC#CSc1ccc(Cl)cc1 [D, 3-(4-chlorophenylthio)-2-propynenitrile] | < 10 | – | – | 50 (≈ 258 µM) | – | – | – | – | – | –
